Measurements taken from patent US20230331718A1, “COMPOSITIONS FOR MODULATING SPLICING” (Skyhawk Therapeutics, Inc., priority 2020, published 2023).

What was measured:
SMN2 Protein = assay: SMN Protein Assay (MSD); assay type: cell-based, human; conditions: SMA patient fibroblasts, 48 hours, 0.6 nM to 2.5 µM
Summary of the method: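 SMA patient fibroblasts at 7,000 cells/well treated 48 h with compound from 0.6 nM to 2.5 µM, then lysed. SMN protein in lysate quantified by Mesoscale Discovery immunoassay against an SMN standard curve (19.5 pg/ml–1 µg/ml), giving absolute amounts.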

[1] = system: SMN2 Splicing D7 (SMN Δ7 transcript); assay: SMN Quantitative Splicing Assay (qPCR); assay type: cell-based, human; conditions: 24 h, SMA patient fibroblasts (GM03813), 2.5 µM to 0.6 nM
Experimental: Spinal muscular atrophy (SMA) patient fibroblasts (GM03813, Coriell) were plated in 96-well plates at 50,000 cells/well. […] Treated cells were lysed and cDNA synthesized using the Fast Advanced Cells-to-Ct kit (Thermofisher A35378) according to the manufacturer’s instructions. 2 µL of each cDNA were used in qPCR reactions. […] Reactions were run in a Quant Studio 6 qPCR instrument with default settings.

Cc1cnc2cc(-c3ncc(N(C)[C@@H]4CC5CC[C@H](N5)[C@@H]4F)nn3)c(O)cc2n1 [Compound 53]
EC50 (SMN2 Protein): 101 to 500 nM
IC50 ([1]; Homo sapiens, Fibroblast): 51 to 100 nM

Cc1cc(=O)c2cc(O)c(-c3ncc(N(C)[C@@H]4C[C@H]5CCC(N5)[C@@H]4F)nn3)cc2o1 (single isomer, unassigned) [Compound 6A]
EC50 (SMN2 Protein): 0.01 to 15 nM
IC50 ([1]; Homo sapiens, Fibroblast): 16 to 50 nM

[2H]C([2H])([2H])N(c1cnc(-c2cc3ccn(C([2H])([2H])[2H])c(=O)c3cc2O)nn1)[C@H]1C[C@@H]2CCC(N2)[C@H]1F [Compound 167]
EC50 (SMN2 Protein): 0.01 to 15 nM
IC50 ([1]; Homo sapiens, Fibroblast): 0.01 to 15 nM

Cc1ncc2cc(O)c(-c3ncc(N(C)[C@@H]4CC5CCC(N5)[C@@H]4F)nn3)cc2n1 (single isomer, unassigned) [Compound 39]
EC50 (SMN2 Protein): 51 to 100 nM
IC50 ([1]; Homo sapiens, Fibroblast): 101 to 500 nM

CN(c1cnc(-c2cc3c(F)cn(C)c(=O)c3cc2O)nn1)[C@H]1C[C@@H]2CC[C@@](C)(N2)[C@H]1F [Compound 187]
EC50 (SMN2 Protein): 0.01 to 15 nM
IC50 ([1]; Homo sapiens, Fibroblast): 0.01 to 15 nM

CCn1cc(F)c2cc(-c3ncc(N(C)[C@H]4C[C@@H]5CCC(N5)[C@H]4F)nn3)c(O)cc2c1=O [Compound 163, 2-Ethyl-4-fluoro-6-(6-{[(2R,3S,5S)-2-fluoro-8-azabicyclo[3.2.1]octan-3-yl](methyl)amino}-1,2,4-triazin-3-yl)-7-hydroayisoquinolin-1-one]
EC50 (SMN2 Protein): 0.01 to 15 nM
IC50 ([1]; Homo sapiens, Fibroblast): 0.01 to 15 nM

CCn1ncc2cc(-c3ncc(N(C)[C@H]4C[C@@H]5CCC(N5)[C@H]4F)nn3)c(O)cc2c1=O [Compound 165]
EC50 (SMN2 Protein): 0.01 to 15 nM
IC50 ([1]; Homo sapiens, Fibroblast): 0.01 to 15 nM

CCn1ccc2cc(O)c(-c3ncc(N(C)[C@H]4CC5CC[C@@H](N5)[C@H]4F)nn3)cc2c1=O [Compound 84]
EC50 (SMN2 Protein): 0.01 to 15 nM
IC50 ([1]; Homo sapiens, Fibroblast): 0.01 to 15 nM

CN(c1cnc(-c2cc3ccn(CC(F)(F)F)c(=O)c3cc2O)nn1)[C@H]1C[C@@H]2CC[C@@H](N2)[C@H]1F [Compound 100]
EC50 (SMN2 Protein): 0.01 to 15 nM
IC50 ([1]; Homo sapiens, Fibroblast): 16 to 50 nM

CN(c1cnc(-c2cc3cnn(C)c(=O)c3cc2O)nn1)C1CC2COCC(C1)N2 (centres unmarked) [Compound 149]
EC50 (SMN2 Protein): 51 to 100 nM
IC50 ([1]; Homo sapiens, Fibroblast): 0.01 to 15 nM

[2H]C([2H])([2H])N(c1cnc(-c2cc3ccn(C([2H])([2H])[2H])c(=O)c3cc2O)nn1)[C@@H]1CC2CC[C@H](N2)[C@@H]1F [Compound 168]
EC50 (SMN2 Protein): 0.01 to 15 nM
IC50 ([1]; Homo sapiens, Fibroblast): 51 to 100 nM

Cc1coc2cc(-c3ncc(N(C)[C@@H]4CC5CCCC(N5)[C@@H]4F)nn3)c(O)cc2c1=O (some centres unmarked) [Compound 101]
EC50 (SMN2 Protein): 0.01 to 15 nM
IC50 ([1]; Homo sapiens, Fibroblast): 0.01 to 15 nM

Cc1cc2cc(-c3ncc(N(C)[C@H]4CC5CC[C@@H](N5)[C@H]4F)nn3)c(O)cc2c(=O)n1C [Compound 206]
EC50 (SMN2 Protein): 0.01 to 15 nM
IC50 ([1]; Homo sapiens, Fibroblast): 0.01 to 15 nM

CN(c1cnc(-c2cc3ccn(C)c(=O)c3cc2O)nn1)[C@H]1C[C@]2(C)CCC(N2)[C@H]1F [Compound 173]
EC50 (SMN2 Protein): 16 to 50 nM
IC50 ([1]; Homo sapiens, Fibroblast): 16 to 50 nM

CN(c1cnc(-c2cc3ncn(C)c(=O)c3cc2O)nn1)C1CC2CC(F)(F)C(C1)N2 (centres unmarked) [Compound 143]
EC50 (SMN2 Protein): 51 to 100 nM
IC50 [1]: 101 to 500 nM

CN(c1cnc(-c2cc3cnn(C)c(=O)c3cc2O)nn1)[C@H]1C[C@]2(C)COC[C@](C)(C1)N2 [Compound 151]
EC50 (SMN2 Protein): 0.01 to 15 nM
IC50 ([1]; Homo sapiens, Fibroblast): 0.01 to 15 nM

[2H]C([2H])([2H])n1ncc2cc(-c3ncc(N(C)[C@@H]4CC5CC[C@H](N5)[C@@H]4F)nn3)c(O)cc2c1=O [Compound 182]
EC50 (SMN2 Protein): 0.01 to 15 nM
IC50 ([1]; Homo sapiens, Fibroblast): 0.01 to 15 nM

Cc1nc2cc(O)c(-c3ncc(N(C)[C@@H]4CC5CC[C@H](N5)[C@@H]4F)nn3)cc2nc1C [Compound 55]
EC50 (SMN2 Protein): 16 to 50 nM
IC50 ([1]; Homo sapiens, Fibroblast): 16 to 50 nM

CN(c1cnc(-c2cc3ncn(C)c(=O)c3cc2O)nn1)C1C[C@]2(C)CCC(N2)[C@H]1F (some centres unmarked) [Compound 36]
EC50 (SMN2 Protein): 16 to 50 nM
IC50 ([1]; Homo sapiens, Fibroblast): 16 to 50 nM

CN(c1cnc(-c2cc3c(=O)ccoc3cc2O)nn1)[C@@H]1CC2CC[C@H](N2)[C@@H]1F [Compound 75]
EC50 (SMN2 Protein): 16 to 50 nM
IC50 ([1]; Homo sapiens, Fibroblast): 101 to 500 nM

CN(c1cnc(-c2cc3cnccc3cc2O)nn1)[C@@H]1CC2CCC(N2)[C@@H]1F (single isomer, unassigned) [Compound 5A]
EC50 (SMN2 Protein): 101 to 500 nM
IC50 ([1]; Homo sapiens, Fibroblast): 101 to 500 nM

[2H]C([2H])([2H])N(c1cnc(-c2cc3c(F)cn(C([2H])([2H])[2H])c(=O)c3cc2O)nn1)[C@@H]1C[C@H]2CC[C@H](N2)[C@@H]1F [Compound 194]
EC50 (SMN2 Protein): 0.01 to 15 nM
IC50 ([1]; Homo sapiens, Fibroblast): 0.01 to 15 nM

[2H]C([2H])([2H])n1cc(F)c2cc(-c3ncc(N(C)[C@@H]4CC5CC[C@H](N5)[C@@H]4F)nn3)c(O)cc2c1=O [Compound 192]
EC50 (SMN2 Protein): 0.01 to 15 nM
IC50 ([1]; Homo sapiens, Fibroblast): 0.01 to 15 nM

CN(c1cnc(-c2cc3ccn(C)c(=O)c3cc2O)nn1)[C@@H]1CC2CCC(N2)[C@@H]1F (single isomer, unassigned) [Compound 4A]
EC50 (SMN2 Protein): 16 to 50 nM
IC50 ([1]; Homo sapiens, Fibroblast): 16 to 50 nM

CN(c1cnc(-c2cc3occc(=O)c3cc2O)nn1)[C@@H]1C[C@@]2(C)CCC[C@](C)(N2)[C@@H]1F [Compound 61]
EC50 (SMN2 Protein): 0.01 to 15 nM
IC50 ([1]; Homo sapiens, Fibroblast): 51 to 100 nM
